Experimental data from patent US4153729A, “Therapeutically useful cysteinol and homocysteinol derivatives” (Recherches Pharmaceutiques et Scientifiques, priority 1977, dated 1979).
Where a name gives a salt, the structure may show the parent alone.

Experiments:
[1] = Oral LD 50 determined according to the method of Karber and Behrens on mice; details: mouse, in vivo, female mice 24 to 26 g, read-out: LD 50 per os
Procedure: The products of the invention are hardly toxic.
The oral LD 50 (see the table below) was determined according to the method of Karber and Behrens (Arch. Exp. Pathol. Pharm. 177, 1935, page 379) on mice EVIC CEBA .female. Swiss EOPS NMRI Han of 24 to 26 g weight.

rats = test: Hypolipemic activity: hyperlipidemia experimentally induced by Triton in rats; type: in vivo; parameters: key: NS: non-significant result; details: 18 h after i.v. Triton; for Hypolipemic activity, percentages of diminution: Triglycerides / Hypolipemic activity, percentages of diminution: total lipids / Hypolipemic activity, percentages of diminution: β-lipoprotein / Hypolipemic activity, percentages of diminution: Cholesterol: single p.o. dose mg/kg: clofibrate 225, Ex 1, 2: 500, Ex 3: 270, Ex 4: 127, Ex 5: 175, Ex 6: 310, Ex 12: 250, Ex 13: 140, Ex 14: 95; for Hypolipemic activity, percentages of diminution: optical serum density: serum at 691 nanometres, single p.o. dose mg/kg: Ex 1, 2: 500, Ex 3: 270, Ex 4: 127, Ex 5: 175, Ex 6: 310, Ex 12: 250, Ex 13: 140, Ex 14: 95
Procedure: The technique used to show these properties has been described by M. Friedman and S. E. Byers in : J. Exptl. Med. 97, 117, 1953 and likewise by S. Garattini and colleagues in Arzneim. Forsch. 9, 206, 1959.
The rats received intravenously 0.3 ml per 100 grams of body weight of a solution of Triton 13 39 at 10%. The products to be tested are administered simultaneously orally at a dose corresponding to a tenth of their LD 50, determined orally in mice, without the dose used exceeding 500 mg/kg.
Eighteen hours after the injection of Triton the animals are sacrificed by section of the carotid and the blood is collected to determined the lipid parameters : cholesterol (auto-analyser Technicon AA II Lieberman Burchard), beta- lipoproteins, (Burnstein), total lipids (Chabrol and Charonnat), triglycerides (Boehringer enzymatic).
The optical density of the serum at 691 nanometres is measured in each case. Each product was tested on ten animals. The statistic calculations were carried out on the averages affected by their divergence from the average using the Student test.
The reference compound used is clofibrate.

[2] = Solubility of the isolated product; type: physicochemical; details: in words

For `CCOC(=O)C(C)(C)Oc1ccc(Cl)cc1` [Clofibrate, reference compound], the LD50 [1] was 2300 mg/kg.

For `NC(CO)CSCSCC(N)CO` (centres unmarked) [Example 1, 2,8-diamino-4,6-dithia-1,9-nonanediol], the LD50 [1] was > 5000 mg/kg, the “Hypolipemic activity, percentages of diminution: Triglycerides” value (rats) was “NS” and the “Hypolipemic activity, percentages of diminution: total lipids” value (rats) was “NS”. The “Hypolipemic activity, percentages of diminution: β-lipoprotein” value (rats) was “NS”, the “Hypolipemic activity, percentages of diminution: optical serum density” value (rats) was “NS” and the solubility [2] was “soluble in the cold in water, alcohol, ether”.

For `NC(CO)CSCCCCSCC(N)CO` (centres unmarked) [Example 2, 2,11-diamino-4,9-dithia-1,12-dodecanediol], the LD50 [1] was 5000 mg/kg, the “Hypolipemic activity, percentages of diminution: Cholesterol” value (rats) was “NS” and the “Hypolipemic activity, percentages of diminution: total lipids” value (rats) was “NS”. For the same compound, the “Hypolipemic activity, percentages of diminution: β-lipoprotein” value (rats) was “NS”, the “Hypolipemic activity, percentages of diminution: optical serum density” value (rats) was “NS” and the solubility [2] was “soluble in water, alcohols, ether”.

For `NC(CO)CSCCCCCCSCC(N)CO` (centres unmarked) [Example 3, 2,13-diamino-4,11-dithia-1,14-tetradecanediol], the LD50 [1] was 2700 mg/kg and the solubility [2] was “soluble in water, alcohols, ether”.

In the case of `NC(CO)CSCCCCCCCCSCC(N)CO` (centres unmarked) [Example 4, 2,15-diamino-4,13-dithia-1,16-hexadecanediol], the LD50 [1] is reported as 1280 mg/kg, the “Hypolipemic activity, percentages of diminution: total lipids” value (rats) is reported as “NS” and the solubility [2] is reported as “soluble in water, alcohols, ether”.

In the case of `NC(CO)CSCCCCCCCCCCSCC(N)CO` (centres unmarked) [Example 5, 2,17-diamino-4,15-dithia-1,18-octadecanediol], the LD50 [1] is reported as 1750 mg/kg, the “Hypolipemic activity, percentages of diminution: total lipids” value (rats) is reported as “NS” and the “Hypolipemic activity, percentages of diminution: β-lipoprotein” value (rats) is reported as “NS”.

For `NC(CO)CSSCC(N)CO` (centres unmarked) [Example 6, 2,7-diamino-4,5-dithia-1,8-octanediol], the LD50 [1] was 3100 mg/kg and the solubility [2] was “soluble in water, methanol, ethanol”.

In the case of `NC(CO)CCSCSCCC(N)CO` (centres unmarked) [Example 8, neutral oxalate of 2,10-diamino-5,7-dithia-1,11 undecanediol], the solubility [2] is reported as “Soluble in water and alcohols”.

For `NC(CO)CCSCCSCCC(N)CO` (centres unmarked) [Example 9, neutral oxalate of 2,11-diamino-5,8-dithia-1,12 dodecanediol], the solubility [2] was “soluble in water and alcohols”.

For `NC(CO)CCSCCCCSCCC(N)CO` (centres unmarked) [Example 10, mandelate of 2,13-diamino-5,10-dithia-1,14-tetradecanediol], the solubility [2] was “soluble in water, alcohols and dimethylformamide”.

For `NC(CO)CCSCCCCCSCCC(N)CO` (centres unmarked) [Example 11, mandelate of 2,14-diamino-5,11-dithia-1,15-pentadecanediol], the solubility [2] was “Soluble in water, alcohols, DMF”.

In the case of `NC(CO)CCSCCCCCCSCCC(N)CO` (centres unmarked) [Example 12, 2,15-diamino-5,12-dithia-1,16-hexadecanediol], the LD50 [1] is reported as 2500 mg/kg, the “Hypolipemic activity, percentages of diminution: Cholesterol” value (rats) is reported as “NS” and the “Hypolipemic activity, percentages of diminution: Triglycerides” value (rats) is reported as “NS”. For the same compound, the “Hypolipemic activity, percentages of diminution: total lipids” value (rats) was “NS”, the “Hypolipemic activity, percentages of diminution: optical serum density” value (rats) was “NS” and the solubility [2] was “soluble in water and alcohols”.

For `NC(CO)CCSCCCCCCCCSCCC(N)CO` (centres unmarked) [Example 13, 2,17-diamino-5,14-dithia-1,18-octadecanediol], the LD50 [1] was 1400 mg/kg and the solubility [2] was “soluble in water and alcohols”.

In the case of `NC(CO)CCSCCCCCCCCCCSCCC(N)CO` (centres unmarked) [Example 14, 2,19-diamino-5,16-dithia-1,20-eicosanediol], the LD50 [1] is reported as 950 mg/kg, the “Hypolipemic activity, percentages of diminution: Cholesterol” value (rats) is reported as “NS” and the “Hypolipemic activity, percentages of diminution: Triglycerides” value (rats) is reported as “NS”. For the same compound, the “Hypolipemic activity, percentages of diminution: total lipids” value (rats) was “NS”, the “Hypolipemic activity, percentages of diminution: optical serum density” value (rats) was “NS” and the solubility [2] was “soluble in water and alcohols”.
